# Experimental data reported in patent US9670242B2, “Tetracyclic anthraquinone derivatives” (Tianjin Hemay Bio-Tech Co., Ltd, priority 2012, dated 2017).
# Where a name gives a salt, the structure may show the parent alone.
# Experiments:
# BxPc-3 cells = assay: BxPc-3 cell growth inhibition test (MTT assay); type: cell-based, human; details: growth inhibition at 2000 nM, 70 h
# Description: BxPc-3 Cell Growth Inhibition Test (MTT Assay)
# Cell strains: BxPC-3 (human pancreatic cancer cell strains); MTT; antitumor compounds; DMSO.
# (§1) II. Reagents and Consumable Materials
# (§2) Culture medium: 90% RPMI-1640+10% FBS; Pancreatin (0.25% (w/v) solution was formulated with PBS, 0.53 mM of EDTA was added in the formulation); PBS; 96-well culture plate.
# (§3) 1. A plate (10 cm) of cells in logarithmic growth phase that were normally cultured was collected;
# (§4) 2. The culture solution was sucked out. The plate was washed with 5 mL of PBS once or twice;
# (§5) 3. PBS was sucked out. 1.5 mL of 0.25% pancreatin was added to infiltrate the cells;
# 4. The culture plate was placed in an incubator. Digestion was carried out for about 8 min at 37° C.;
# (§6) 5. 4.5 mL of complete culture solution was added to the culture plate to stop the digestion. The cells were carefully scoured with micropipette (1 ml) to give a uniform cell suspension. The suspension was implanted into a 96-well cell culture disc by 5000 cells/100 μL per well. The culture plate was incubated overnight under 5% CO2 at 37° C. In day 2, 100 μL of culture solution comprising a compound was added in each well. The plate was further incubated for 70 h under 5% CO2 at 37° C.;
# (§7) 6. The culture solution was sucked out;
# (§8) 7. 100 μL of serum-free culture solution containing 0.5 mg/mL MTT was added in each well. The plate was incubated for 3 h;
# (§9) 8. The culture solution was carefully sucked out;
# (§10) 9. 100 μL of DMSO was added into each well and vibrated to dissolve;
# (§11) 10. OD values were determined at 490 nM.
# (§12) IV. Results and Treatments
# (§13) 1. Calculation of Relative Inhibition Ratio The inhibition ratio of a compound on cell growth=(PC−n)/(PC−NC)×100%
# (§14) PC: OD values of cells after normal growth in control wells without a compound;
# (§15) n: OD values of cells after growth in test wells with a compound;
# (§16) NC: Background OD values of blank wells without a compound and cells.
# MDA-MB-453 cells = assay: MDA-MB-453 cell growth inhibition test (SRB assay); type: cell-based, human; details: growth inhibition at 2000 nM, 69.5 h
# Description: MDA-MB-453 Cell Growth Inhibition Test (SRB Assay)
# Cell strains: MDA-MB-453 (human breast cancer cell strains); SRB: 0.4% (w/v) working solution was formulated with 1% glacial acetic acid, reserved at 4° C.; antitumor compounds; DMSO.
# as §1
# Culture medium: 90% L15+10% FBS; pancreatin (0.25% (w/v) solution was formulated with PBS, 0.53 mM of EDTA was added in the formulation); PBS; 96-well culture plate.
# as §3, §4
# (§17) 3. 1.5 mL of 0.25% pancreatin was added to the plate to infiltrate the cells;
# (§18) 4. The pancreatin was sucked out. The culture plate was placed in an incubator. Digestion was carried out for about 3 min at 37° C.;
# as §6, with “4” for “4.5”, “uniform single” for “uniform”, “plate” for “disc”, “7000” for “5000”, “well.” for “well. The plate was further incubated for 70 h under 5% CO2 at 37° C.;”
# The plate was further incubated for 69.5 h under 5% CO2 at 37° C.;
# (§19) 6. The culture solution was sucked out. 100 uL of TCA fixed cells which were diluted to 10% were added to each well. The plate was kept in a refrigerator for 1 h at 4° C.
# (§20) 7. TCA stationary liquid was sucked out. Each well was washed with 150 μL of ddH2O five times;
# (§21) 8. After the stationary liquid was cleansed, the plate was dried in the air at the room temperature;
# (§22) 9. 60 μL of SRB staining solution was added in each well. The well was stained for 15 min at the room temperature;
# (§23) 10. The SRB staining solution was sucked out. Each well was washed with 150 μL of 1% glacial acetic acid five times;
# (§24) 11. After the SRB staining solution was cleansed, the plate was dried in the air at the room temperature;
# (§25) 12. 100 μL of 10 mM Tris was added in each well. The plate was vibrated to dissolve out SRB;
# (§26) 13. OD values were determined at 570 nM.
# as §12, §13, §14, §15, §16
# 22Rv1 cells = assay: 22Rv1 cell growth inhibition test (SRB assay); type: cell-based, human; details: growth inhibition at 222 nM, 73 h
# Description: 22Rv1 Cell Growth Inhibition Test (SRB Assay)
# Cell strains: 22Rv1 (human prostate cancer cell strains); SRB: 0.4% (w/v) working solution was formulated with 1% glacial acetic acid, reserved at 4° C.; antitumor compounds; DMSO.
# as §1, §2, §3, §4, §17, §18
# as §6, with “4” for “4.5”, “uniform single” for “uniform”, “plate” for “disc”, “7000” for “5000”, “73” for “70”
# as §19, §20, §21, §22, §23, §24, §25, §26, §12, §13, §14, §15, §16
# [1] = Solubility of the compound in water; type: physicochemical
# NCI-H446 cells = assay: NCI-H446 cell growth inhibition test (MTT assay); type: cell-based, human; details: growth inhibition at 222 nM, 70 h
# Description: NCI-H446 Cell Growth Inhibition Test (MTT Assay)
# Cell strains: NCI-H446 (human small cell lung cancer cell strains); MTT; antitumor compounds; DMSO.
# as §1, §2, §3, §4, §5
# 4. The culture plate was placed in an incubator. Digestion was carried out for about 3 min at 37° C.;
# as §6, with “3” for “4.5”, “4000” for “5000”
# as §7, §8, §9, §10, §11, §12, §13, §14, §15, §16
# SK-OV-3 cells = assay: SK-OV-3 cell growth inhibition test (MTT assay); type: cell-based, human; details: growth inhibition at 667 nM, 69 h
# Description: SK-OV-3 Cell Growth Inhibition Test (MTT Assay)
# Cell strains: SK-OV-3 (human ovarian cancer cell strains); MTT; antitumor compounds; DMSO.
# as §1
# Culture medium: 90% McCoy's 5A+10% FBS; Pancreatin (0.25% (w/v) solution was formulated with PBS, 0.53 mM of EDTA was added in the formulation); PBS; 96-well culture plate.
# as §3, §4, §5
# 4. The pancreatin was sucked out. The culture plate was placed in an incubator. Digestion was carried out for about 5 min at 37° C.;
# as §6, with “4000” for “5000”, “69” for “70”
# as §7, §8, §9
# (§27) 9. 100 μL of DMSO was added in each well and vibrated to dissolve;
# as §11, §12, §13, §14, §15, §16
# A375 cells = assay: A375 cell growth inhibition test (MTT assay); type: cell-based, human; details: 72 h
# Description: A375 Cell Growth Inhibition Test (MTT Assay)
# as §1
# Culture medium: 90% DMEM+10% FBS (fetal calf serum); Pancreatin (0.25% (w/v) solution was formulated with PBS, 0.53 mM of EDTA was added in the formulation); PBS; 96-well culture plate.
# as §3, §4
# (§28) 3. PBS was sucked out. 1.5 mL of 0.25% pancreatin was added to the plate to infiltrate the cells for 1 min;
# (§29) 4. The culture plate was placed in an incubator. Digestion was carried out for about 5 min at 37° C.;
# as §6, with “3” for “4.5”, “3000” for “5000”, “72” for “70”
# as §7, §8, §9, §27, §11, §12, §13, §14, §15, §16
# Hep3B cells = assay: Hep3B cell growth inhibition test (SRB assay); type: cell-based; details: 72 h
# Description: Hep3B Cell Growth Inhibition Test (SRB Assay)
# as §1, §2, §3, §4, §17, §18
# as §6, with “4” for “4.5”, “mL)” for “ml)”, “uniform single” for “uniform”, “plate” for “disc”, “72” for “70”
# as §19, §20, §21, §22, §23, §24, §25, §26, §12
# 1. Calculation of Relative Inhibition Ratio The inhibition ratio of the compound on cell growth=(PC−n)/(PC−NC)×100% […]
# DU-145 cells = assay: DU-145 cell growth inhibition test (MTT assay); type: cell-based; details: 72 h
# Description: DU-145 Cell Growth Inhibition Test (MTT Assay)
# as §1
# Culture medium: 90% EMEM+10% FBS (fetal calf serum); Pancreatin (0.25% (w/v) solution was formulated with PBS, 0.53 mM of EDTA was added in the formulation); PBS; 96-well culture plate.
# as §3, §4, §28
# 4. The culture plate was placed in an incubator. Digestion was carried out for about 1 min at 37° C.;
# as §6, with “3” for “4.5”, “mL)” for “ml)”, “4000” for “5000”, “72” for “70”
# as §7, §8, §9, §27, §11, §12, §13, §14, §15, §16
# A431 cells = assay: A431 cell growth inhibition test (MTT assay); type: cell-based, human; details: 72 h
# Description: A431 Cell Growth Inhibition Test (MTT Assay)
# as §1
# Culture medium: 45% DMEM+45% F12+10% FBS (fetal calf serum); Pancreatin (0.25% (w/v) solution was formulated with PBS, 0.53 mM of EDTA was added in the formulation); PBS; 96-well culture plate.
# as §3, §4, §28, §29
# as §6, with “3” for “4.5”, “mL)” for “ml)”, “2500” for “5000”, “72” for “70”
# as §7, §8, §9, §27, §11, §12, §13, §14, §15, §16
compound,measurement,setting,value
"CC(=O)O.COc1cccc2c1C(=O)c1c(O)c3c(c(O)c1C2=O)CC(O)(C(=O)COC(=O)CCC(=O)N1CCN(CCO)CC1)CC3O[C@H]1C[C@H](n2cccc2)[C@H](O)[C@H](C)O1 (stereo partly drawn) [Example 77, 10-((3′-(pyrrol-1-yl)-2′,3′,6′-trideoxy-alphal-l-lyxo-hexylpyranyl)oxy)-7,8,9,10-tetrahydro-6,8,11-trihydroxy-13-oxo-14-(4-((4-(2-hydroxy)ethyl)piperazin-1-yl)-4-oxo-butyrato)-1-methoxy-5,12-naphthalenedione acetate]",Inhibition Ratio (%),BxPc-3 cells,83.3%
same,Inhibition Ratio (%),MDA-MB-453 cells,79.7%
same,Inhibition Ratio (%),22Rv1 cells,57.9%
same,solubility of the compound in water,[1],more than 10.6 mg/ml
same,Inhibition Ratio (%),NCI-H446 cells,59.1%
same,Inhibition Ratio (%),SK-OV-3 cells,60.4%
COc1cccc2c1C(=O)c1c(O)c3c(c(O)c1C2=O)CC(O)(C(=O)COC(=O)CCC(=O)NCCOCCN(C)C)CC3OC1CC(n2cccc2)C(O)C(C)O1 (stereo not drawn) [Example 6],IC50,A375 cells,67 nM
"COc1cccc2c1C(=O)c1c(O)c3c(c(O)c1C2=O)CC(O)(C(=O)COC(=O)CCC(=O)NCCN1CCOCC1)CC3O[C@H]1C[C@H](n2cccc2)[C@H](O)[C@H](C)O1 (stereo partly drawn) [Example 99, 10-((3′-(pyrrol-1-yl)-2′,3′,6′-trideoxy-alphal-l-lyxo-hexylpyranyl)oxy)-7,8,9,10-tetrahydro-6,8,11-trihydroxy-13-oxo-14-(4-((2-(morpholin-1-yl)ethyl)amino)-4-oxo-butyrato)-1-methoxy-5,12-naphthalenedione hydrochloride]",IC50,A375 cells; hydrochloride,35 nM
"CC(=O)O.COc1cccc2c1C(=O)c1c(O)c3c(c(O)c1C2=O)CC(O)(C(=O)COC(=O)CCC(=O)NCCOCCN(C)C)CC3O[C@H]1C[C@H](n2cccc2)[C@H](O)[C@H](C)O1 (stereo partly drawn) [Example 76, 10-((3′-(pyrrol-1-yl)-2′,3′,6′-trideoxy-alphal-l-lyxo-hexylpyranyl)oxy)-7,8,9,10-tetrahydro-6,8,11-trihydroxy-13-oxo-14-(4-(2-(2-(dimethylamino)ethoxy)ethylamino)-4-oxo-butyrato)-1-methoxy-5,12-naphthalenedione acetate]",Inhibition Ratio (%),BxPc-3 cells,77.1%
same,Inhibition Ratio (%),MDA-MB-453 cells,62.7%
same,Inhibition Ratio (%),22Rv1 cells,49.2%
same,solubility of the compound in water,[1],more than 9 mg/ml
same,Inhibition Ratio (%),NCI-H446 cells,46%
same,Inhibition Ratio (%),SK-OV-3 cells,46.4%
COc1cccc2c1C(=O)c1c(O)c3c(c(O)c1C2=O)CC(O)(C(=O)COC(=O)CCC(=O)NCCOCCOCCOCCOCCOCCOCCOCCOCCOCCOCCOCCO)CC3OC1CC(n2cccc2)C(O)C(C)O1 (stereo not drawn) [Example 92],IC50,Hep3B cells,28 nM
same,IC50,DU-145 cells,61 nM
COc1cccc2c1C(=O)c1c(O)c3c(c(O)c1C2=O)CC(O)(C(=O)COC(=O)CCCC(=O)NCCN1CCOCC1)CC3OC1CC(n2cccc2)C(O)C(C)O1 (stereo not drawn) [Example 97],IC50,A375 cells,28 nM
same,IC50,A431 cells,45 nM
